Experimental data as given in patent US10966959B2, “Use of a rotifer-derived compound and its analogs for preventing schistosomiasis” (Wisconsin Alumni Research Foundation, priority 2018, dated 2021).
“Also recorded” adds a separate entry of the source.

Legend:
[1] = test system: S. mansoni cercariae; experiment: Cercarial paralysis assay; type: cell-based
Experimental: Infected B. glabrata snails provided by Biomedical Research Institute (BRI, Rockville, Md.) were maintained in artificial pond water and fed Layer Crumbles (chicken feed) (Rural King, Mattoon, Ill.). To obtain S. mansoni cercariae, B. glabrata snails were exposed to light at 26° C. for 1-2 hrs. Artificial pond water containing cercariae was passed through 100 μm cell strainer (Falcon, Corning Inc., Corning, N.Y.) to remove snail food and feces. Cercariae were then collected using custom-made 20 μm cell strainers.
Cercarial Paralysis Assay
To capture the whole field while avoiding excess reflected light in a well, we used the lid of 96-well plate (Costar, Corning Inc., Corning, N.Y.). 40 μL of artificial pond water containing ˜50 cercariae were added to each shallow well on the lid. 10 μL of SPF (dissolved in APW) was then added to reach the final concentration indicated. Using a high-speed camera (Olympus i-SPEED TR), attached to a stereomicroscope (Leica MZ125, Leica Microsystems, Wetzlar, Germany), we recorded cercariae movement at 20-60 fps at 1.25× magnification just prior to addition of test compounds until 3-4 minutes after treatment started. Raw movies were converted to .avi files using i-SPEED Viewer and compressed into JPEG format using ImageJ (addition of compound is considered time 0). We then counted the numbers of free swimming/paralyzed cercariae every 5 seconds for 1 minute and every 30 seconds thereafter for 3 minutes. The number of dead cercariae (those that never swim before and after SPF treatment) were subtracted from data. Experiments were performed in triplicate.
To determine if cercariae react to SPF or other analogs in a dose-dependent manner, serial dilutions of SPF were made in APW. To quantify the paralysis effect of SPF, the movement of the cercariae was recorded, as well as the number of free-swimming and non-swimming cercariae. In the absence of SPF, over 82% of cercariae were free-swimming over three minutes (FIG. 1(A)). In the presence of 2.5 nM SPF, the percentage of free-swimming cercariae dropped to 67% at three minutes post drug treatment. As the concentration of SPF increased, the rate of paralysis increased, and more cercariae were paralyzed at the end of the treatment.

[2] = test system: S. mansoni cercariae; experiment: Mouse infection experiment (mouse tail exposure to drug-treated cercariae); type: in vivo; conditions: for liver granulomas / schistosome eggs in histological liver sections / adult worms recovered from infected mice: six weeks post infection
Experimental: Mouse Infection Experiment
Mouse infections were performed by exposing mouse tails to S. mansoni cercariae according to standard protocol from BRI with slight modifications (see Lewis et al., Curr. Protoc. Immunol., 2001, Chapter 19). Briefly, we secured mice in rodent restrainers (Thomas Scientific, Cat #551-BSRR) and put them vertically on top of a rack with grids. We pipetted 100 μL of each drug in proper concentration into a skinny glass tube (Fisher Scientific, Cat #14-958A) inside a 12×75 mm holding glass tube (VWR, Cat #47729-570). 300 μL of APW containing ˜200 cercariae were pipetted into each skinny tube and incubated for 10 mins before we inserted mouse tail. Mouse tails were wiped with APW-moistened Kimwipes, inserted into the skinny tube, and exposed to cercariae for 30 mins. We sacrificed and perfused these mice six week-post infection. For each drug, we initially used three mice for controls (APW only) and three mice for each concentration tested except for 25 nM Ht-13-A and Ht-13-A-pr. We then repeated the experiments again with three mice for each condition. In addition, we included six mice for 25 nM Ht-13-A and Ht-13-A-pr so that we had six biological replicates total for each condition.
Adult worms were recovered by hepatic portal vein perfusion and briefly incubated in 2.5% Tricaine (Sigma) to separate males and females. We counted total numbers of adult worms under a stereomicroscope (Leica MZ75, Leica Microsystems). Livers from infected mice were fixed in 4% formaldehyde in PBS overnight. Largest liver lobes (left lobe) were submitted to University of Wisconsin-Madison Histology Core Facility for sectioning and Hematoxylin and Eosin staining. Each left lobe was evenly cut into 4-6 pieces and paraffin embedded on a large cassette. One slide (4-6 liver sections) for each liver was used for histological examination, which provided a representative view throughout the whole liver lobe. We took a tiled image of the whole slide using a Zeiss Axio Zoom microscope and used ImageJ (National Institutes of Health, Bethesda, Md.) to determine the area of each section. Total numbers of eggs in each section were counted and normalized to the area.
To determine if SPF-induced paralysis could prevent infection, ˜200 cercariae were treated with different concentrations of SPF (25 nM, 250 nM, and 2.5 μM) for 10 min followed by a 30 min mouse tail infection (N=6 for each condition). Six-weeks post infection, the mice were euthanized, hepatic portal vein perfusion was performed, recovered schistosomes were counted, and mouse liver pathology was examined. In the control group, 83 adult worms were recovered on average (FIG. 2(A)). Livers from these mice appeared dark in color and had extensive granuloma formation (FIG. 2(A)). […] Without wishing to be bound by theory, it is possible that mechanical and/or chemical stimuli from mouse tails may overcome the SPF-induced paralytic effects at low SPF concentrations.

COc1ccc2[nH]cc3c2c1OC1C(C)CN(C)C1C3 (centres unmarked) [SPF, 5-methoxy-7,9-dimethyl-6a,7,8,9,9a,10-hexahydro-2H-pyrrolo[2′,3′:6,7]oxepino[4,3,2-cd]indole]
percentage of free-swimming cercariae ([1]; 2.5 nM, three minutes post drug treatment): 67%
paralytic effect on cercariae ([1]; 25 nM, in vitro): could paralyze most cercariae
paralytic effect on cercariae ([1]; 250 nM): maximum paralytic effect; also recorded: full paralysis
time until majority of cercariae paralyzed ([1]; 250 nM): ≤ 30 s
paralytic effect on cercariae ([1]; 2.5 μM): maximum paralytic effect; also recorded: full paralysis
time until majority of cercariae paralyzed ([1]; 2.5 μM): ≤ 30 s
effect on mouse infection ([2]; 25 nM): not as severe
blocking / inhibition of infection ([2]; 250 nM): complete inhibition of infection
liver granulomas ([2]; 250 nM): no granulomas were observed
schistosome eggs in histological liver sections ([2]; 250 nM): clear of schistosome eggs
blocking / inhibition of infection ([2]; 2.5 μM): complete inhibition of infection
liver granulomas ([2]; 2.5 μM): no granulomas were observed
schistosome eggs in histological liver sections ([2]; 2.5 μM): clear of schistosome eggs
adult worms recovered from infected mice ([2]; cercariae treated with 250 nM for 10 min): no adult worms could be recovered
adult worms recovered from infected mice ([2]; cercariae treated with 2.5 μM for 10 min): no adult worms could be recovered
liver appearance (post perfusion) ([2]; higher concentrations of drug treatment): normal morphologies with few or no granulomas
liver appearance (post perfusion) ([2]; lower concentrations of drug): darker in color and contained more granulomas
